From US9694024B2 (priority 2010, dated 2017)
pEC50, pIC50: −log10 of the molar value. Entries after “also recorded” stand apart in the source; their conditions may differ. Read-outs that look alike come from different tables or passages of the source.

Legend:
[1] = Phase I single dose study, plasma pharmacokinetics; format: in vivo, human; conditions: for Cmax / AUC(0-inf): human, plasma; for AUC(0-inf): read-out: CMX157 AUCINF
Description: (§1) The study was a randomized, blinded, dose escalation trial to evaluate safety, tolerability, and pharmacokinetics. Healthy volunteers in each cohort (6 active/2 placebo) received a single dose of 25, 50, 100, 200 or 400 mg. An additional cohort received a standard dose of Viread for comparison of TFV-PP levels. For tenofovir anabolite analysis, PBMCs were lysed with 70% ice cold methanol and centrifuged; supernatants were analyzed using LC/MS/MS. The clinical samples were split into two aliquots. One aliquot was used for analysis of CMX157; following addition of an internal standard, these samples were evaporated to dryness prior to reconstitution and analysis. The second aliquot was for analysis of TFV, TFV-monophosphate and TFV-diphosphate; following addition of internal standards, samples were vortexed and centrifuged prior to analysis.

XMRV = XMRV antiviral cytoprotection assay (PG-4 cells, XTT); format: cell-based; conditions: 144 h, 6 day assay, read-out: EC50s for XMRV
Description: An XMRV antiviral cytoprotection assay was conducted using PG-4 cells (ATCC# CRL-2032; feline astrocytes) and XMRV was collected from the supernatant of 22Rv1 human prostate cancer cells (ATCC# CRL-2505). Inhibition of cytopathic effect was quantified using XTT following a 6 day assay. Ribavirin and AZT were evaluated in parallel as control compounds.

[2] = Phase I single dose study, safety and tolerability; format: in vivo, human; conditions: healthy volunteers, single doses 25 mg to 400 mg
Description: as §1

[3] = target: human OAT1 (organic anion transporter1) (Homo sapiens (Human), UniProt Q4U2R8); test: hOAT1 mediated uptake in MDCK-II cells; conditions: for Cellular Accumulation (control): control vector cells of hOAT1 test; for Cellular Accumulation (transporter): hOAT1 expressing MDCK-II cells
HIV-1 subtypes (A-G, O) = test: Activity against HIV-1 subtypes in PBMCs; format: cell-based; conditions: Human immunodeficiency virus 1, PBMC
human PBMCs = conditions: activated human PBMCs, 10 nM CMX157 (Lanier 2010); cited from earlier work
[4] = Phase I single dose study, TFV-diphosphate in PBMCs of healthy volunteers; format: in vivo, human; conditions: single 400 mg dose of CMX157
Description: as §1

[5] = target: human OAT3 (organic anion transporter3) (Homo sapiens (Human), UniProt Q8TCC7); test: hOAT3 mediated uptake in MDCK-II cells; format: in vitro ADME; conditions: for Cellular Accumulation (control): control vector cells of hOAT3 test; for Cellular Accumulation (transporter): hOAT3 expressing MDCK-II cells
Description: Experimental: The uptake test system was comprised of a polarized monolayer of MCDK-II cells grown on permeable supports. The MDCK-II cells were treated to express the transporter of interest or treated with a control vector.
The uptake of 2 μM [^3H]-p-aminohippurate (PAH) and 0.75 μM [^3H]-estrone-3-sulfate (E-3-S) in the absence and presence of the reference inhibitor was determined by radiometric detection. The uptake of CMX157 and tenofovir was in the absence and presence of the reference inhibitor or 20% human serum was determined by LC/MS/MS. Experiments were performed under the same conditions for the cells expressing the transporter or those treated with the control vector.
Net Transporter Mediated Uptake=(Cellular accumulation in the presence of the transporter)−(Cellular accumulation in the absence of the transporter) Results: The net hOAT1 mediated uptake of tenofovir in the presence and absence of 100 μM probenecid or 20% human serum is shown in FIG. 8. The transport of tenofovir is inhibited by probenecid and relatively unchanged by the presence of 20% human serum. OAT3 also appeared to mediate the transport of tenofovir. The effect of probenecid, however, was minimal. The presence of 20% human serum in the OAT3 experiment reduced the OAT3 mediated transport of tenofovir.

SMILES: CCCCCCCCCCCCCCCCOCCCOP(=O)(O)CO[C@H](C)Cn1cnc2c(N)ncnc21 [CMX157, 3-(hexadecyloxy)propyl hydrogen ((R)-1-(6-amino-9H-purin 9-yl)propan-2-yloxy)methylphosphonate]
- change of CMX157 plasma Cmax and AUC with dose ([1]; 25 mg to 400 mg single oral dose): approximate linear increase; also recorded: increased linearly with dose
- Cmax ([1]; oral, all single dose groups (25 to 400 mg), read-out: Cmax levels): > 10 nM
- AUC(0-inf) ([1]; single oral dose CMX157 200 mg, mean): 210 ng·h/mL
- Cmax ([1]; single oral dose CMX157 200 mg, mean, read-out: CMX157 Cmax): 74 ng/mL
- AUC(0-inf) ([1]; single oral dose CMX157 400 mg, mean): 376 ng·h/mL
- Cmax ([1]; single oral dose CMX157 400 mg, mean, read-out: CMX157 Cmax): 165 ng/mL
- pEC50 (XMRV): 6.30 to 8.52
- serious and remarkable adverse events [2]: No SAEs or remarkable AEs were reported
- subjects reporting mild headache [2]: 3
- tolerability [2]: well tolerated
- Cellular Accumulation (control) ([3]; + 100 μM probenecid): 40.4 ± 5.17 pmol/min/cm^2
- Cellular Accumulation (control) ([3]; + 20% human serum): 6.46 ± 0.168 pmol/min/cm^2
- Cellular Accumulation (control) ([3]; substrate alone (PAH 2 μM)): 50.3 ± 1.30 pmol/min/cm^2
- Net Transporter Mediated Cellular Accumulation ([3]; hOAT1, + 100 μM probenecid): −14.5 ± 4.65 pmol/min/cm^2
- Net Transporter Mediated Cellular Accumulation ([3]; hOAT1, + 20% human serum): −0.954 ± 1.70 pmol/min/cm^2
- Net Transporter Mediated Cellular Accumulation ([3]; hOAT1, substrate alone (PAH 2 μM)): −13.0 ± 0.0465 pmol/min/cm^2
- Cellular Accumulation (transporter) ([3]; + 100 μM probenecid): 25.9 ± 4.65 pmol/min/cm^2
- Cellular Accumulation (transporter) ([3]; + 20% human serum): 5.51 ± 1.70 pmol/min/cm^2
- Cellular Accumulation (transporter) ([3]; substrate alone (PAH 2 μM)): 37.3 ± 0.0465 pmol/min/cm^2
- pIC50 (HIV-1 subtypes (A-G, O); previously tested, read-out: IC50s against HIV-1 subtypes (A-G, O)): 8.15 to 9.00
- pEC50 (HIV-1 subtypes (A-G, O); read-out: EC50 against all major subtypes of HIV-1 in PBMCs): 8.14 to 9.70
- TFV-diphosphate produced (human PBMCs): 70 fmoles per million cells
- TFV-diphosphate in PBMCs [4]: measurable in all subjects; also recorded: measurable in PBMCs from all patients
- TFV-diphosphate in PBMCs 6 days after dosing [4]: all but one had detectable levels
- substrate for human OAT3 [5]: did not appear to be a substrate
- Cellular Accumulation (control) ([5]; + 100 μM probenecid): 49.5 ± 2.65 pmol/min/cm^2
- Cellular Accumulation (control) ([5]; + 20% human serum): 4.90 ± 1.57 pmol/min/cm^2
- Cellular Accumulation (control) ([5]; substrate alone (E3S 0.75 μM)): 39.5 ± 11.6 pmol/min/cm^2
- Net Transporter Mediated Cellular Accumulation ([5]; hOAT3, + 100 μM probenecid): −23.4 ± 7.59 pmol/min/cm^2
- Net Transporter Mediated Cellular Accumulation ([5]; hOAT3, + 20% human serum): 1.26 ± 0.396 pmol/min/cm^2
- Net Transporter Mediated Cellular Accumulation ([5]; hOAT3, substrate alone (E3S 0.75 μM)): −8.72 pmol/min/cm^2
- Cellular Accumulation (transporter) ([5]; + 100 μM probenecid): 26.1 ± 7.59 pmol/min/cm^2
- Cellular Accumulation (transporter) ([5]; + 20% human serum): 6.16 ± 0.396 pmol/min/cm^2
- Cellular Accumulation (transporter) ([5]; substrate alone (E3S 0.75 μM)): 30.7 pmol/min/cm^2
